Reference: patent US7553858B2, “Combination of flupirtine and tramadol” (priority 2003, dated 2009)
Read-outs that look alike come from different tables or passages of the source. Marks after values point to notes of the source that are not given here.

Tests used:
[1] = system: acetylcholine-induced writhing; assay: Acetylcholine-induced writhing in mice; type: in vivo; conditions: Mus musculus
Experimental: Male mice weighing 22-24 g were maintained in groups of 4 at standard conditions (temperature 22±1° C., humidity: 40-50%, dark-light rhythm: 12/12 h) with food and water freely available.
Abdominal contractions (writhings) were induced by intraperitoneal (i.p.) injection of acetylcholine (ACh) (chloride, 5.5. mg/kg) in a volume of 10 ml/kg. Immediately thereafter, mice were placed in a plastic cage and the number of abdominal contractions (writhes) was counted for 10 min. The total number of abdominal contractions per animal and number of animals with contractions were calculated.
Drugs were prepared daily. All compounds were given orally. Tramadol hydrochloride and flupirtine maleate were administered 30 min before acetylcholine injection.
ED50 values were estimated either by the ratio of animals protected from writhings to the number of animals in groups or by the mean number of writhes in each group of animals. The values were calculated by using linear regression. The statistical analysis of differences between calculated and measured effects was carried out by the Kruscall-Wallis test. Asterisks (*) indicate the significance level p<0.05.

[2] = system: seizures induced by subconvulsive pentetrazol doses; assay: Submaximal pentetrazol-induced seizures in mice; conditions: for Intensity (scored) of seizures / Number of animals with seizures: n = 10
Experimental: Male mice weighing 22-24 g were used. Animals housed in groups of 4 at standard conditions (temperature 22° C., humidity 40-60%) with food and water freely available. Lights were on from 06.00 a.m. to 06.00 p.m. The experiments were approved by the Animal Health Committee of the University which is responsible for the care and proper use of experimental animals.
Seizures were induced by intraperitoneal administration of pentetrazol at the subconvulsive dose of 30 mg/kg. The latency of the first seizure reaction, the seizure intensity and the number of animals with seizures were calculated for the first 10 min after i.p. injection of pentetrazol. Tramadol (hydrochloride) and flupirtine (maleate) were given intraperitoneally (15 min before pentetrazol administration). Drugs were prepared daily in 0.9% saline.

tramadol-induced emesis = assay: Emetic response in conscious mongrel dogs; type: in vivo; conditions: Tramadol 14 mg/kg i.v., first 60 min, n = 5
Experimental: Mongrel dogs of both sexes weighing up to 15 kg were used. They were deprived of food overnight but allowed water ad libitum. Test compounds were administered to conscious animals by a slow infusion via the saphenous vein. Emetic responses (retches, strong salivation vomits with output) were monitored 60 min following drug administration (Borison and Wang, 1953). All dogs received 14 mg/kg tramadol i.v. repeatedly with an interval of one week. Positive responder dogs were selected and used in further experiments.

skeletal muscle tone = assay: Skeletal muscle tone in conscious rats; type: in vivo, Sprague-Dawley rats
Experimental: The experimental set-up has been described in all details in a former publication (Nickel et al. Arzn. Forsch./Drug Res. 1997; 47; 1081-6). Briefly, the measurement of skeletal muscle tone was done by recording successively the resistance of flexor and extensor muscles which counteracted the forced straightening and bending of the foot in the ankle joint. Pressure changes induced by the movements of the foot were continuously registered. Signals were analyzed on a personal computer. A corresponding computer program calculated the resistance values of flexors and extensors of the foot over 10 min recording periods.
Male Sprague-Dawley rats weighing 200-220 g were used.
Drugs (tramadol hydrochloride, flupirtine maleate) were prepared in physiological saline daily and given intraperitoneally.
The statistical analysis of differences between calculated and measured effects was carried out by the one-way ANOVA. Asterisks (*) indicate the significance level p<0.01.

[3] = Tramadol 20 mg/kg i.p., 15 min before pentetrazol 30 mg/kg i.p.
[4] = Tramadol 40 mg/kg i.p., pentetrazol 30 mg/kg i.p.
[5] = Flupirtine 10 mg/kg i.p., pentetrazol 30 mg/kg i.p.
[6] = Flupirtine 20 mg/kg i.p., pentetrazol 30 mg/kg i.p.

Row | Structure (SMILES) | ED50 ([1]; read-out: oral ED50-values calculated on the basis of animals protected from writhings) | ED50 ([1]; read-out: oral ED50-values calculated on the basis of reduction of number of writhings) | Intensity (scored) of seizures [2, 3] | Number of animals with seizures [2, 3] | Intensity (scored) of seizures [2, 4] | Number of animals with seizures [2, 4] | effect on acute seizures induced by subconvulsive doses of pentetrazol (in words) ([2]; mice, i.p.) | Emetic response, % of dogs (tramadol-induced emesis) | Changes in muscle tonus (in % compared to placebo) (skeletal muscle tone; Tramadol 20 mg/kg i.p.) | Changes in muscle tonus (in % compared to placebo) (skeletal muscle tone; Tramadol 40 mg/kg i.p.) | ED50 ([1]; mice, oral, 30 min before ACh 5.5 mg/kg i.p., read-out: oral ED50-values calculated on the basis of animals protected from writhings) | ED50 ([1]; mice, oral, 30 min before ACh 5.5 mg/kg i.p., read-out: oral ED50-values calculated on the basis of reduction of number of writhings) | Intensity (scored) of seizures [2, 5] | Number of animals with seizures [2, 5] | Intensity (scored) of seizures [2, 6] | Number of animals with seizures [2, 6] | proconvulsive activity of tramadol, in the combination (in words) ([2]; mice, i.p., flupirtine with tramadol) | tramadol-induced skeletal muscle rigidity (in words) (skeletal muscle tone; Flupirtine 5-10 mg/kg i.p.)
1 | COc1cccc([C@@]2(O)CCCC[C@H]2CN(C)C)c1 (racemic) [Tramadol, trans-(+/−)-2-[(Dimethylamino)methyl]-1-(3-methoxyphenyl)cyclohexanol] | 4.87 mg/kg | 4.14 mg/kg | 1.70* | 8* | 3.00* | 10* | proconvulsive effects | 100% | +12% | +47%* | – | – | – | – | – | – | – | –
2 | CCOC(=O)Nc1ccc(NCc2ccc(F)cc2)nc1N [Flupirtine] | – | – | – | – | – | – | – | – | – | – | 27.2 mg/kg | 21 mg/kg | 0.20 | 2 | 0.10 | 1 | almost completely attenuated | completely abolished
